ChEMBL document CHEMBL5223102, “CDK9 inhibitors in cancer research” (RSC Med Chem, 2022)

Columns and labels:
[1] = molecular target: T1, Cyclin-dependent kinase 2 (Homo sapiens, UniProt P24941)
[2] = molecular target: T2, Cyclin-dependent kinase 9 (Homo sapiens, UniProt P50750)
CDK4/Cyclin D3 = CDK4/Cyclin D3 (Homo sapiens, UniProt P11802); test: Inhibition of human CDK4/Cyclin D3 in presence of ATP; assay type: protein-complex assay
CDK9/cyclin T1 = CDK9/cyclin T1 (Homo sapiens, UniProt P50750); test: Inhibition of human CDK9/cyclin T1 in presence of ATP; assay type: protein-complex assay
[3] = molecular target: T3, Cyclin-dependent kinase 2/cyclin A (Homo sapiens, UniProt P24941); test: Inhibition of CDK2/cyclin A (unknown origin) using GST-CTD and gamma-32P-ATP as substrate incubated for 5 min by […]; assay type: protein-complex assay
[4] = molecular target: T4, Cyclin-dependent kinase 6 (Homo sapiens, UniProt Q00534); test: Inhibition of CDK6 (unknown origin)
T4 sequence (Q00534 whole entry): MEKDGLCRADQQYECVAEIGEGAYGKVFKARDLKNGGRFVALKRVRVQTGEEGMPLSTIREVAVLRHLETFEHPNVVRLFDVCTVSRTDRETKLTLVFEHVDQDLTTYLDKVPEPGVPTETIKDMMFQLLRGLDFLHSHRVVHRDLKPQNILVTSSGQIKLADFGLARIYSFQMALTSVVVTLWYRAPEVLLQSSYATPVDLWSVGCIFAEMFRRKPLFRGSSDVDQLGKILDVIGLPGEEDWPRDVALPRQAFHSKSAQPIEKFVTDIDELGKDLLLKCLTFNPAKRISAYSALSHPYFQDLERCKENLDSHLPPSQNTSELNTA

[5] = molecular target: T5, Cyclin-dependent kinase 5 (Homo sapiens, UniProt Q00535); test: Inhibition of CDK5 (unknown origin)
T5 sequence (Q00535 whole entry): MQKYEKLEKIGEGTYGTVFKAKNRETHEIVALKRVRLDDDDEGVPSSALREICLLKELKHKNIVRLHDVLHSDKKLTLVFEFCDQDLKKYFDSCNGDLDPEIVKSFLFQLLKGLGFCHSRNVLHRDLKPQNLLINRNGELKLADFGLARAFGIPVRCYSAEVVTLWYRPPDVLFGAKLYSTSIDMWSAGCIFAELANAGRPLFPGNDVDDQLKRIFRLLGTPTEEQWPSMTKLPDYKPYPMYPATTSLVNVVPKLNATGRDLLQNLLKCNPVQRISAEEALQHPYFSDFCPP

[6] = molecular target: T6, Cyclin-dependent kinase 8 (Homo sapiens, UniProt P49336); test: Inhibition of CDK8 (unknown origin)
T6 sequence (P49336 whole entry): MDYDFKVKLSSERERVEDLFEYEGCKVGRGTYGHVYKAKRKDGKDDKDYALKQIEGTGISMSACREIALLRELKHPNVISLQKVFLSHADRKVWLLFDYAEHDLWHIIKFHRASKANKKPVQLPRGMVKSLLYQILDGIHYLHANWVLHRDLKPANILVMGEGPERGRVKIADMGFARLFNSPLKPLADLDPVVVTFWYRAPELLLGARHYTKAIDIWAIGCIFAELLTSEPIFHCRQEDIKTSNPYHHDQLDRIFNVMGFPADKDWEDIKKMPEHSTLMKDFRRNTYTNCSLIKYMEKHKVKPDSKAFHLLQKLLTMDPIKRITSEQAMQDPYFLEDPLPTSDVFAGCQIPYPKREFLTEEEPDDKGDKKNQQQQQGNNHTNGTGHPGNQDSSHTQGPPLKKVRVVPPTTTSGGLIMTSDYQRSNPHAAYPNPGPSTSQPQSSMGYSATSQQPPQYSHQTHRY

[7] = molecular target: T7, Cyclin-dependent kinase 1 (Homo sapiens, UniProt P06493); test: Inhibition of CDK1 (unknown origin) by Kinomescan method
T7 sequence (P06493 whole entry): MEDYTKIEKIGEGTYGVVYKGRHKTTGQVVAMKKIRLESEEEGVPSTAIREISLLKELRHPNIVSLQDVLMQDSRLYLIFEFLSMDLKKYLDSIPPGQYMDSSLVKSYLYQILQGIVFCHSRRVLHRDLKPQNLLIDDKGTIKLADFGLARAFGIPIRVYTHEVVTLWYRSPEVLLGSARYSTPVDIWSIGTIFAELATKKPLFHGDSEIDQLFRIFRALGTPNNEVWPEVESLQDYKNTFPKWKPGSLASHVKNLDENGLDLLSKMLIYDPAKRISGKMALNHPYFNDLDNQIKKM

[8] = molecular target: T2, Cyclin-dependent kinase 9; test: Inhibition of CDK9 (unknown origin) by Kinomescan method
[9] = molecular target: T8, Cyclin-dependent kinase 17 (Homo sapiens, UniProt Q00537); test: Inhibition of CDK17 (unknown origin) by Kinomescan method
[10] = molecular target: T9, Cyclin-dependent kinase 16 (Homo sapiens, UniProt Q00536); test: Inhibition of CDK16 (unknown origin) by Kinomescan method
T9 sequence (Q00536 whole entry): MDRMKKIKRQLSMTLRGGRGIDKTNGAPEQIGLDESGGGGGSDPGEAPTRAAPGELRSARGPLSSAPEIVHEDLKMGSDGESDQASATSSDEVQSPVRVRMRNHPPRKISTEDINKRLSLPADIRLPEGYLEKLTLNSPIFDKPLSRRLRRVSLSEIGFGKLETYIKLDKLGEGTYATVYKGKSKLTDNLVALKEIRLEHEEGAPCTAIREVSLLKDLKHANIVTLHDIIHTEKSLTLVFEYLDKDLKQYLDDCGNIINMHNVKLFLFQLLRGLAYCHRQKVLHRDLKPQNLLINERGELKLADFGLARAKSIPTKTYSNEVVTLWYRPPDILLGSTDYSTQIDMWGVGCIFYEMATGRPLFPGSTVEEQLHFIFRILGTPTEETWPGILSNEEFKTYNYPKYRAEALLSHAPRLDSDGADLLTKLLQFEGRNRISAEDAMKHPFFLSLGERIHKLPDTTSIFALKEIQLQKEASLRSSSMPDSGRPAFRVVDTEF

[11] = molecular target: T1, Cyclin-dependent kinase 2; test: Inhibition of CDK2 (unknown origin) by Kinomescan method
[12] = molecular target: T10, Cyclin-dependent kinase 18 (Homo sapiens, UniProt Q07002); test: Inhibition of CDK18 (unknown origin) by Kinomescan method
T10 sequence (Q07002 whole entry): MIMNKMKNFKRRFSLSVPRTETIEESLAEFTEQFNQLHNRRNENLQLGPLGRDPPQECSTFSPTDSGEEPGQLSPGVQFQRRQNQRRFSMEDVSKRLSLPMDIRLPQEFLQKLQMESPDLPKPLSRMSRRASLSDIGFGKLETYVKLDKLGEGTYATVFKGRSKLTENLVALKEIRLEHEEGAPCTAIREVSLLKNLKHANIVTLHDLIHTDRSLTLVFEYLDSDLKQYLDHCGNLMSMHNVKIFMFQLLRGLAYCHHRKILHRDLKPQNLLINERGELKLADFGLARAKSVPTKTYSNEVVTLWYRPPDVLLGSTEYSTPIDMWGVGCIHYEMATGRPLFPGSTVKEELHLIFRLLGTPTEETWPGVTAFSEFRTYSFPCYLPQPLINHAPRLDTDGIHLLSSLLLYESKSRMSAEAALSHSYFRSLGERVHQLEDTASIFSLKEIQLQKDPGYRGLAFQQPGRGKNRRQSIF

[13] = molecular target: T2, Cyclin-dependent kinase 9; test: Inhibition of CDK9 (unknown origin) at 1 uM by Kinomescan method
[14] = molecular target: T5, Cyclin-dependent kinase 5; test: Inhibition of CDK5 (unknown origin) by Kinomescan method
[15] = molecular target: T6, Cyclin-dependent kinase 8; test: Inhibition of CDK8 (unknown origin) by Kinomescan method
[16] = molecular target: T11, Cyclin-dependent kinase 7 (Homo sapiens, UniProt P50613)
T11 sequence (P50613 whole entry): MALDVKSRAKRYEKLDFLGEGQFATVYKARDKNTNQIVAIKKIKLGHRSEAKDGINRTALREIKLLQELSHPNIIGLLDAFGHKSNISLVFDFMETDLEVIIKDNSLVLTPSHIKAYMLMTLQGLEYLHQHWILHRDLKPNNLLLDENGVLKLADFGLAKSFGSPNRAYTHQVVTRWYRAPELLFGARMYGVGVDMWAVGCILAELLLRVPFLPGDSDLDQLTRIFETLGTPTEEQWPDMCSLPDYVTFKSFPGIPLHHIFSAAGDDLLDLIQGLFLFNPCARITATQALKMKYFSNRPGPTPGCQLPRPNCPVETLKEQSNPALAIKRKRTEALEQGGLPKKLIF

[17] = molecular target: T12, Cyclin-dependent kinase 14 (Homo sapiens, UniProt O94921); test: Inhibition of CDK14 (unknown origin) by Kinomescan method
[18] = molecular target: Dual specificity tyrosine-phosphorylation-regulated kinase 1B (Homo sapiens, UniProt Q9Y463); test: Inhibition of DYRK1B (unknown origin) by Kinomescan method
[19] = molecular target: Cyclin-dependent kinase 5/CDK5 activator 1 (Homo sapiens, UniProt Q00535); test: Inhibition of CDK5/p35 (unknown origin); assay type: protein-complex assay
Cyclin-dependent kinase 5/CDK5 activator 1, sequence (Q00535 whole entry): as the sequence (Q00535 whole entry) above
Cyclin-dependent kinase 5/CDK5 activator 1, sequence (Q15078 whole entry, further chain): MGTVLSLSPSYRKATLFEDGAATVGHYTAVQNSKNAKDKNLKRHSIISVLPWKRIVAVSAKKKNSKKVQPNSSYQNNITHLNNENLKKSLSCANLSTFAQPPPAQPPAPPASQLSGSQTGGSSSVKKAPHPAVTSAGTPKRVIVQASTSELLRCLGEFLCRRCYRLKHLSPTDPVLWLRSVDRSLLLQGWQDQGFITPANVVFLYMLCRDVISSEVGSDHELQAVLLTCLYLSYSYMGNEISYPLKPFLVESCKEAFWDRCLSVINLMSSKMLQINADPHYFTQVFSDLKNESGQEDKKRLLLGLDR

[20] = molecular target: T13, Cyclin-dependent kinase 4 (Homo sapiens, UniProt P11802); test: Inhibition of CDK4 (unknown origin)
T13 sequence (P11802 whole entry): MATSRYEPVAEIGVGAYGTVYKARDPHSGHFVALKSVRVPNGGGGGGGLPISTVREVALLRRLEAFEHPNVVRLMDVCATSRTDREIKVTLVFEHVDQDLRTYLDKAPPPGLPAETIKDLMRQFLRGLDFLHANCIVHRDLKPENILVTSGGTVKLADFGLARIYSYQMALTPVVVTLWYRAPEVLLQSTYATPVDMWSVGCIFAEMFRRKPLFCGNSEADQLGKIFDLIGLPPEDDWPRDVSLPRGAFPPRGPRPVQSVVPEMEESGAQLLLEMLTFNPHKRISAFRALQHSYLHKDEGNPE

[21] = molecular target: T2, Cyclin-dependent kinase 9; test: Inhibition of CDK9 (unknown origin) using TMB as substrate by ELISA
[22] = molecular target: T14, Protein cereblon/Cyclin-dependent kinase 9 (Homo sapiens, UniProt P50750+Q96SW2); test: Protac activity at CRBN/CDK9 in human MOLT-4 cells assessed as degradation of CDK9 measured after 6 hrs by western blot analysis; assay type: cell-based
T14 sequence (P50750 whole entry): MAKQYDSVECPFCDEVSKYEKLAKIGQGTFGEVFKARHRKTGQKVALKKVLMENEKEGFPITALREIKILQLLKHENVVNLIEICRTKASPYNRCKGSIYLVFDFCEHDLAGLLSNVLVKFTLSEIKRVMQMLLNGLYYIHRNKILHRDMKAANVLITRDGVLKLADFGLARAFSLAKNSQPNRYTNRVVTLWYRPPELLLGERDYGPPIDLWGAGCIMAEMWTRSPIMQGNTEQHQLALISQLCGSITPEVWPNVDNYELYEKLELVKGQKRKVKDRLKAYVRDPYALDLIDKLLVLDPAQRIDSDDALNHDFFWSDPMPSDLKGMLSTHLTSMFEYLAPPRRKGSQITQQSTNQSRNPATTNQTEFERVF
T14 sequence (Q96SW2 whole entry): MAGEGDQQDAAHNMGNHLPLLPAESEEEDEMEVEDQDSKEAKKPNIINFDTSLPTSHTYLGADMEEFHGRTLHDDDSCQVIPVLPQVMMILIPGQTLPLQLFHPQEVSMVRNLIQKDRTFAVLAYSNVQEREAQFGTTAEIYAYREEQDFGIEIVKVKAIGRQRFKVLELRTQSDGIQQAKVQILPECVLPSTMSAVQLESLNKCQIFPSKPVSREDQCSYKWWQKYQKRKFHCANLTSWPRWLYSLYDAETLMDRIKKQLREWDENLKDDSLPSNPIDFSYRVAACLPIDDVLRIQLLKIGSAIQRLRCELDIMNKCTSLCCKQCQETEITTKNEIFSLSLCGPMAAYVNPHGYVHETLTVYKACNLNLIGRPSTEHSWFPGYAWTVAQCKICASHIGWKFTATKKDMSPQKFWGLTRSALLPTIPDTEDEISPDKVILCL

[23] = molecular target: T9, Cyclin-dependent kinase 16; test: Inhibition of CDK16 (unknown origin) incubated for 120 mins in presence of ATP by HotSpot kinase assay
[24] = molecular target: T4, Cyclin-dependent kinase 6; test: Inhibition of CDK6 (unknown origin) incubated for 120 mins in presence of ATP by HotSpot kinase assay
[25] = molecular target: Cyclin-dependent kinase 12 (Homo sapiens, UniProt Q9NYV4)
[26] = molecular target: T8, Cyclin-dependent kinase 17; test: Inhibition of CDK17 (unknown origin) incubated for 120 mins in presence of ATP by HotSpot kinase assay
[27] = molecular target: Cyclin-dependent kinase 19 (Homo sapiens, UniProt Q9BWU1); test: Inhibition of CDK19 (unknown origin) incubated for 120 mins in presence of ATP by HotSpot kinase assay
[28] = molecular target: T5, Cyclin-dependent kinase 5; test: Inhibition of CDK5 (unknown origin) incubated for 120 mins in presence of ATP by HotSpot kinase assay
[29] = molecular target: Cyclin-dependent kinase 13 (Homo sapiens, UniProt Q14004)
[30] = molecular target: T13, Cyclin-dependent kinase 4; test: Inhibition of CDK4 (unknown origin) incubated for 120 mins in presence of ATP by HotSpot kinase assay
[31] = molecular target: T10, Cyclin-dependent kinase 18
[32] = molecular target: Cyclin-dependent kinase 3 (Homo sapiens, UniProt Q00526); test: Inhibition of CDK3 (unknown origin) incubated for 120 mins in presence of ATP by HotSpot kinase assay
[33] = molecular target: T6, Cyclin-dependent kinase 8; test: Inhibition of CDK8 (unknown origin) incubated for 120 mins in presence of ATP by HotSpot kinase assay
[34] = molecular target: T1, Cyclin-dependent kinase 2; test: Inhibition of CDK2 (unknown origin) incubated for 120 mins in presence of ATP by HotSpot kinase assay
[35] = molecular target: T12, Cyclin-dependent kinase 14; test: Inhibition of CDK14 (unknown origin) incubated for 120 mins in presence of ATP by HotSpot kinase assay
[36] = molecular target: Cyclin-C/Cyclin-dependent kinase 19 (Homo sapiens, UniProt Q9BWU1); test: Inhibition of CDK19/Cyclin C (unknown origin) by LanthaScreen binding assay; assay type: protein-complex assay
CDK9/Cyclin K = CDK9/Cyclin K (Homo sapiens, UniProt P50750); test: Inhibition of CDK9/Cyclin K (unknown origin) by LanthaScreen binding assay; assay type: protein-complex assay
CDK8/Cyclin C = CDK8/Cyclin C (Homo sapiens, UniProt P49336); test: Inhibition of CDK8/Cyclin C (unknown origin) by LanthaScreen binding assay; assay type: protein-complex assay
[37] = molecular target: T7, Cyclin-dependent kinase 1; test: Inhibition of CDK1 (unknown origin) by LANCE ULight TR-FRET assay
[38] = molecular target: T13, Cyclin-dependent kinase 4; test: Inhibition of CDK4 (unknown origin) by LANCE ULight TR-FRET assay
[39] = molecular target: T1, Cyclin-dependent kinase 2; test: Inhibition of CDK2 (unknown origin) by LANCE ULight TR-FRET assay
[40] = molecular target: T6, Cyclin-dependent kinase 8; test: Inhibition of CDK8 (unknown origin) by LANCE ULight TR-FRET assay
[41] = molecular target: T11, Cyclin-dependent kinase 7; test: Inhibition of CDK7 (unknown origin) by LANCE ULight TR-FRET assay
[42] = molecular target: T15, Cyclin-dependent kinase 1/cyclin B (Homo sapiens, UniProt P06493); test: Inhibition of human CDK1/Cyclin B in presence of gamma32P-ATP by scintillation counter analysis; assay type: protein-complex assay
[43] = molecular target: T3, Cyclin-dependent kinase 2/cyclin A; test: Inhibition of human CDK2/Cyclin A in presence of gamma32P-ATP by scintillation counter analysis; assay type: protein-complex assay
CDK6/cyclin D3 = CDK6/cyclin D3 (Homo sapiens, UniProt Q00534); test: Inhibition of human CDK6/Cyclin D3 in presence of gamma32P-ATP by scintillation counter analysis; assay type: protein-complex assay
[44] = molecular target: T16, Cyclin-dependent kinase 4/cyclin D1 (Homo sapiens, UniProt P11802); test: Inhibition of human CDK4/Cyclin D1 assessed as substrate phosphorylation at ser780 using GST tagged retinoblastoma as substrate in presence of gamma32P-ATP by scintillation counter analysis; assay type: protein-complex assay
T16 sequence (P11802 whole entry): as the sequence (P11802 whole entry) above
T16 sequence (P24385 whole entry, further chain): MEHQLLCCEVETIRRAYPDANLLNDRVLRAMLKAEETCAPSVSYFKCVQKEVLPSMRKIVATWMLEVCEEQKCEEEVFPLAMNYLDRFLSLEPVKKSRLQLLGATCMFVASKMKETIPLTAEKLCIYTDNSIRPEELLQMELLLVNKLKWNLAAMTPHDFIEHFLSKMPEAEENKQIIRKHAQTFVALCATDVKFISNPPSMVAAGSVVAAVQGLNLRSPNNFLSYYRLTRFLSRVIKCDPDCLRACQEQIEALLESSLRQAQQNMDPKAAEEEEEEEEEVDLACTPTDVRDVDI

[45] = Inhibition of CDK7/Cyclin H/MAT1 (unknown origin); set-up: species or system Homo sapiens
[46] = Inhibition of CDK6/Cyclin D3 (unknown origin); set-up: species or system Homo sapiens
[47] = Inhibition of CDK4/Cyclin D (unknown origin); set-up: species or system Homo sapiens
[48] = Inhibition of CDK3/Cyclin E (unknown origin); set-up: species or system Homo sapiens
[49] = molecular target: T15, Cyclin-dependent kinase 1/cyclin B; test: Inhibition of CDK1/Cyclin B (unknown origin); assay type: protein-complex assay
[50] = molecular target: T4, Cyclin-dependent kinase 6; test: Inhibition of CDK6 (unknown origin) assessed as substrate phosphorylation using ULight MBP peptide as substrate in presence of ATP incubated for 1 hr by FRET based LANCE Ultra KinaSelect screen assay
[51] = molecular target: T11, Cyclin-dependent kinase 7; test: Inhibition of CDK7 (unknown origin) assessed as substrate phosphorylation using ULight MBP peptide as substrate in presence of ATP incubated for 1 hr by FRET based LANCE Ultra KinaSelect screen assay
[52] = molecular target: T16, Cyclin-dependent kinase 4/cyclin D1; test: Inhibition of CDK4/cyclin D1 (unknown origin) assessed as substrate phosphorylation using ULight MBP peptide as substrate in presence of ATP incubated for 1 hr by FRET based LANCE Ultra KinaSelect screen assay; assay type: protein-complex assay
[53] = molecular target: Cyclin-dependent kinase 1/cyclin B1 (Homo sapiens, UniProt P06493); test: Inhibition of CDK1/cyclin B1 (unknown origin) assessed as substrate phosphorylation using ULight MBP peptide as substrate in presence of ATP incubated for 1 hr by FRET based LANCE Ultra KinaSelect screen assay; assay type: protein-complex assay
[54] = molecular target: T3, Cyclin-dependent kinase 2/cyclin A; test: Inhibition of CDK2/cyclin A (unknown origin) assessed as substrate phosphorylation using ULight MBP peptide as substrate in presence of ATP incubated for 1 hr by FRET based LANCE Ultra KinaSelect screen assay; assay type: protein-complex assay
[55] = molecular target: T14, Protein cereblon/Cyclin-dependent kinase 9; test: Protac activity at CRBN/CDK9 in human MCF7 cells assessed as degradation of CDK9 measured after 24 hrs by western blot analysis; assay type: cell-based

T2 sequence (P50750 whole entry): as the sequence (P50750 whole entry) above

COc1cc(O)c2c(=O)cc(-c3ccc(N4CCN(C)CC4)cc3)oc2c1N1CCNCC1
IC50 [1]: 1180 nM | IC50 [2]: 30 nM

CN(C)CCNC(=O)c1ccc(Nc2ncc3cc(C(=O)N(C)C)n(C4CCCC4)c3n2)c(F)c1
IC50 (CDK4/Cyclin D3): 2.5 nM | IC50 (CDK9/cyclin T1): 7 nM

Nc1n[nH]c(N)c1/N=N/c1ccc(O)cc1
IC50 [3]: 3500 nM

CN1CC[C@@H](c2c(O)cc(O)c3c(=O)cc(-c4ccc(C(F)(F)F)cc4Cl)oc23)[C@@H]1CO [VORUCICLIB]
IC50 [4]: 210 nM | IC50 [1]: 180 nM | IC50 [5]: 210 nM | IC50 [6]: 12 nM

COC[C@@H](C)N[C@H]1CC[C@H](Nc2cc(-c3cccc(NCC4(C#N)CCOCC4)n3)c(Cl)cn2)CC1
IC50 [7]: 584 nM | IC50 [8]: < 0.514 nM | IC50 [9]: 1500 nM | IC50 [10]: 605 nM | IC50 [11]: 706 nM | IC50 [12]: 4900 nM | inhibition [13]: 99% | IC50 [14]: 1050 nM | IC50 [15]: > 10000 nM | IC50 [16]: > 10000 nM | IC50 [17]: 3450 nM | IC50 [18]: 350 nM

COCCN1CCN(Cc2ccc(-c3n[nH]c4c3C(=O)c3c(NC(=O)NN5CCOCC5)cccc3-4)cc2)CC1 [RGB-286638]
IC50 [19]: 5 nM

Fc1ccc(N2CCCCC2)c(NC(=S)c2ccncc2)c1
IC50 [20]: 30000 nM

O=C1N=NC(=O)/C(=C/Nc2ccc(-c3nc4ncccc4[nH]3)cc2)C(=O)N1
IC50 [21]: 500 nM

CC(C)(C)c1cnc(CSc2cnc(NC(=O)C3CCN(CC(=O)NCCOCCOCCOCCNc4cccc5c4C(=O)N(C4CCC(=O)NC4=O)C5=O)CC3)s2)o1 (configuration not stated)
DC50 [22]: < 250 nM

CCCc1cc(N[C@@H]2CC[C@@H](N)C2)n2nccc2n1
IC50 [23]: > 1200 nM | IC50 [24]: > 1200 nM | IC50 [25]: 6200 nM | IC50 [26]: > 1200 nM | IC50 [27]: > 1200 nM | IC50 [28]: > 1200 nM | IC50 [29]: 4550 nM | IC50 [30]: > 1200 nM | IC50 [31]: > 1200 nM | IC50 [32]: > 1200 nM | IC50 [33]: > 1200 nM | IC50 [34]: 18200 nM | IC50 [35]: > 1200 nM

CC(C)c1ccc(Nc2nccc(-c3cnn4ncccc34)n2)cc1 [GW805758X]
IC50 [36]: 2.7 nM | IC50 (CDK9/Cyclin K): 20 nM | IC50 (CDK8/Cyclin C): 1.1 nM

COc1ccc(F)cc1-c1c(F)cnc2[nH]c(C3=CCN([C@H]4CC[C@H](C(=O)O)CC4)CC3)cc12
IC50 [37]: 348 nM | IC50 [38]: 16.2 nM | IC50 [39]: 328 nM | IC50 [40]: 1610 nM | IC50 [41]: 14400 nM

CN1CCC(c2c(O)cc(O)c3c(=O)cc(-c4ccccc4Cl)oc23)C1CO (configuration not stated) [RIVICICLIB]
IC50 [42]: 79 nM | IC50 [43]: 224 nM | IC50 (CDK6/cyclin D3): 396 nM | IC50 [44]: 63 nM

Nc1nc(N[C@H]2CC3CCC2C3)sc1C(=O)c1ccccc1[N+](=O)[O-] (some centres not stated)
IC50 [45]: 555 nM | IC50 [46]: 712 nM | IC50 [47]: 112 nM | IC50 [19]: 159 nM | IC50 [48]: 399 nM | IC50 [49]: 138 nM

COc1ccccc1-c1cc(Nc2cccc(CS(N)(=O)=O)c2)ncn1
IC50 [50]: > 10000 nM | IC50 [51]: > 10000 nM | IC50 [52]: 9240 nM | IC50 [53]: 5510 nM | IC50 [54]: 2440 nM

O=C1CCC(N2C(=O)c3cccc(NC(=O)CCCCCn4cc(Oc5c(O)cc(O)c6c(=O)cc(-c7ccccc7)oc56)nn4)c3C2=O)C(=O)N1 (configuration not stated)
DC50 [55]: 10000 nM
